Measurements published in ChEMBL document CHEMBL1201862, “PubChem BioAssay data set” (2004).
“And” between values parts separate entries of the source, which are not always exact repeats. Identical values can stand only once.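 Test compounds were applied to cells in 96-well plates for 48 hours at 5 doses. Here, GI50 denotes the concentration required for 50% inhibition of growth.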 The source made the active and inactive calls. No stated cut-off is given here; in the data, active = GI50 up to about 1.1 µM and inactive = higher.

Assays:
Assay in all cases: inhibition of tumour cell growth, NCI panel, 48 h
DU-145 = system: DU-145
U-251 = system: U-251
RPMI-8226 = system: RPMI-8226
NCI-H522 = system: NCI-H522
UO-31 = system: UO-31
HOP-62 = system: HOP-62
COLO 205 = system: COLO 205
PC-3 = system: PC-3
HCC 2998 = system: HCC 2998
SNB-19 = system: SNB-19
SK-OV-3 = system: SK-OV-3
MDA-MB-435 = system: MDA-MB-435
MDA-MB-231 = system: MDA-MB-231
KM12 = system: KM12
NCI-H23 = system: NCI-H23
ACHN = system: ACHN
M14 = system: M14
A498 = system: A498
HOP-92 = system: HOP-92

SMILES: CCOC(=O)C1=COC(C)(c2ccccc2)CC1=O (centres undefined)
- GI50 (DU-145): > 100 µM (inactive)
- GI50 (U-251): > 100 µM (inactive)
- GI50 (RPMI-8226): > 100 µM (inactive)
- GI50 (NCI-H522): > 100 µM (inactive)
- GI50 (UO-31): > 100 µM (inactive)
- GI50 (HOP-62): > 100 µM (inactive)
- GI50 (COLO 205): > 100 µM (inactive)
- GI50 (PC-3): > 100 µM (inactive)
- GI50 (HCC 2998): > 100 µM (inactive)
- GI50 (SNB-19): > 100 µM (inactive)
- GI50 (SK-OV-3): > 100 µM (inactive)
- GI50 (MDA-MB-435): > 100 µM (inactive)
- GI50 (MDA-MB-231): > 100 µM (inactive)
- GI50 (KM12): > 100 µM (inactive)
- GI50 (NCI-H23): > 100 µM (inactive)
- GI50 (ACHN): > 100 µM (inactive)
- GI50 (M14): > 100 µM (inactive)
- GI50 (A498): > 100 µM (inactive)

SMILES: C[n+]1c(/C=C/c2ccc(O)c3ncccc23)[se]c2ccccc21
- GI50 (DU-145): 4.26 µM (inactive)
- GI50 (U-251): 2.88 µM (inactive)
- GI50 (RPMI-8226): 5.01 µM (inactive)
- GI50 (NCI-H522): 2.58 µM (inactive)
- GI50 (UO-31): 2.71 µM (inactive)
- GI50 (HOP-62): 3.3 µM (inactive)
- GI50 (COLO 205): 5.58 µM (inactive)
- GI50 (PC-3): 2.92 µM (inactive)
- GI50 (SNB-19): 4.5 µM (inactive)
- GI50 (SK-OV-3): 5.96 µM (inactive)
- GI50 (MDA-MB-435): 6.34 µM (inactive)
- GI50 (MDA-MB-231): 0.406 µM (active)
- GI50 (KM12): 2.48 µM (inactive)
- GI50 (NCI-H23): 4.05 µM (inactive)
- GI50 (HOP-92): 4.22 µM (inactive)
- GI50 (ACHN): 1.92 µM (inactive)
- GI50 (M14): 4.67 µM (inactive)
- GI50 (A498): 11.2 µM (inactive)

SMILES: COC(=O)C1=Cc2cc(OC)c(O)cc2[C@@H](c2ccc(O)c(OC)c2)[C@@H]1C(=O)OC
- GI50 (DU-145): > 100 µM (inactive)
- GI50 (U-251): > 100 µM (inactive)
- GI50 (RPMI-8226): > 100 µM (inactive)
- GI50 (NCI-H522): > 100 µM (inactive)
- GI50 (UO-31): 10.5 µM (inactive)
- GI50 (HOP-62): > 100 µM (inactive)
- GI50 (COLO 205): > 100 µM (inactive)
- GI50 (PC-3): > 100 µM (inactive)
- GI50 (HCC 2998): > 100 µM (inactive)
- GI50 (SNB-19): > 100 µM (inactive)
- GI50 (MDA-MB-435): 45.5 µM (inactive)
- GI50 (MDA-MB-231): 39.2 µM (inactive)
- GI50 (KM12): 37.6 µM (inactive)
- GI50 (NCI-H23): > 100 µM (inactive)
- GI50 (HOP-92): 53.7 µM (inactive)
- GI50 (ACHN): > 100 µM (inactive)
- GI50 (M14): > 100 µM (inactive)
- GI50 (A498): > 100 µM (inactive)

SMILES: Cc1cn(C2CC(N(O)Cc3ccccc3)C(CO[Si](C)(C)C(C)(C)C)O2)c(=O)[nH]c1=O (centres undefined)
- GI50 (DU-145): 17.8 µM (inactive) and 25.4 µM (inactive)
- GI50 (U-251): 15.1 µM (inactive) and 19.6 µM (inactive)
- GI50 (RPMI-8226): 30.6 µM (inactive)
- GI50 (NCI-H522): 18 µM (inactive)
- GI50 (HOP-62): 19.5 µM (inactive) and 16.3 µM (inactive)
- GI50 (COLO 205): 18.5 µM (inactive) and 20.9 µM (inactive)
- GI50 (PC-3): 14.5 µM (inactive) and 22.6 µM (inactive)
- GI50 (HCC 2998): 19.8 µM (inactive) and 16.7 µM (inactive)
- GI50 (SNB-19): 18.6 µM (inactive) and 34.9 µM (inactive)
- GI50 (MDA-MB-435): 17.9 µM (inactive) and 18 µM (inactive)
- GI50 (MDA-MB-231): 16.8 µM (inactive) and 16.5 µM (inactive)
- GI50 (KM12): 23 µM (inactive) and 17.2 µM (inactive)
- GI50 (NCI-H23): 26.6 µM (inactive) and 16.7 µM (inactive)
- GI50 (HOP-92): 16 µM (inactive) and 18.7 µM (inactive)
- GI50 (ACHN): 26.7 µM (inactive) and 17.6 µM (inactive)
- GI50 (M14): 16.6 µM (inactive) and 19.5 µM (inactive)
- GI50 (A498): 13.8 µM (inactive) and 26.7 µM (inactive)

SMILES: Cc1cn(CCC(N)C(=O)O)c(=O)[nH]c1=O (centres undefined)
- GI50 (DU-145): > 100 µM (inactive)
- GI50 (U-251): > 100 µM (inactive)
- GI50 (RPMI-8226): > 100 µM (inactive)
- GI50 (NCI-H522): > 100 µM (inactive)
- GI50 (UO-31): > 100 µM (inactive)
- GI50 (HOP-62): > 100 µM (inactive)
- GI50 (COLO 205): > 100 µM (inactive)
- GI50 (PC-3): > 100 µM (inactive)
- GI50 (SNB-19): > 100 µM (inactive)
- GI50 (SK-OV-3): > 100 µM (inactive)
- GI50 (MDA-MB-435): > 100 µM (inactive)
- GI50 (MDA-MB-231): > 100 µM (inactive)
- GI50 (KM12): > 100 µM (inactive)
- GI50 (NCI-H23): > 100 µM (inactive)
- GI50 (HOP-92): > 100 µM (inactive)
- GI50 (ACHN): > 100 µM (inactive)
- GI50 (M14): > 100 µM (inactive)
- GI50 (A498): > 100 µM (inactive)

SMILES: CO[P@]1(=O)O[C@@H](c2ccccc2)[C@H](O)[C@]1(O)c1ccccc1
- GI50 (DU-145): > 100 µM (inactive)
- GI50 (U-251): > 100 µM (inactive)
- GI50 (RPMI-8226): > 100 µM (inactive)
- GI50 (NCI-H522): > 100 µM (inactive)
- GI50 (UO-31): > 100 µM (inactive)
- GI50 (COLO 205): > 100 µM (inactive)
- GI50 (PC-3): > 100 µM (inactive)
- GI50 (SNB-19): > 100 µM (inactive)
- GI50 (SK-OV-3): > 100 µM (inactive)
- GI50 (MDA-MB-435): > 100 µM (inactive)
- GI50 (MDA-MB-231): > 100 µM (inactive)
- GI50 (KM12): > 100 µM (inactive)
- GI50 (NCI-H23): > 100 µM (inactive)
- GI50 (HOP-92): > 100 µM (inactive)
- GI50 (ACHN): > 100 µM (inactive)
- GI50 (M14): > 100 µM (inactive)
- GI50 (A498): > 100 µM (inactive)

SMILES: Nc1ccc2nc3n(c2c1)C(c1c(F)cccc1F)SC3 (centres undefined)
- GI50 (DU-145): > 100 µM (inactive)
- GI50 (U-251): > 100 µM (inactive)
- GI50 (RPMI-8226): 66.5 µM (inactive)
- GI50 (NCI-H522): > 100 µM (inactive)
- GI50 (UO-31): 72.6 µM (inactive)
- GI50 (HOP-62): > 100 µM (inactive)
- GI50 (COLO 205): > 100 µM (inactive)
- GI50 (PC-3): > 100 µM (inactive)
- GI50 (HCC 2998): > 100 µM (inactive)
- GI50 (SNB-19): > 100 µM (inactive)
- GI50 (SK-OV-3): > 100 µM (inactive)
- GI50 (MDA-MB-435): > 100 µM (inactive)
- GI50 (MDA-MB-231): > 100 µM (inactive)
- GI50 (KM12): > 100 µM (inactive)
- GI50 (NCI-H23): > 100 µM (inactive)
- GI50 (ACHN): > 100 µM (inactive)
- GI50 (M14): > 100 µM (inactive)
- GI50 (A498): > 100 µM (inactive)
